Experiments:
NMDA receptor complex = experiment: Inhibition of NMDA receptor complex, whole cell patch clamp in cortical neurons; format: cell-based; details: primary rat cortical neurons; holding -70 mV; NMDA 100 μM + glycine 10 μM; read-out: IC50 of NMDA-induced currents
Method: Cortical neurons were prepared from embryonic Wistar rats (E17-E19). A female rat at date 17-19 of pregnancy was anesthetized and sacrificed. The foetuses (n=4-5) were dissected and placed in ice-cold Hank's solution (Hank's solution (Life tech. 14170-088)+glucose 30%+Pen-Strep 100× (Life Tech. 15140-122) 100 U-100 μg/mL and Hepes-NaOH 5 mM).
The brain of the foetuses was cut in two halves, and each cortex was cut in smaller parts with a scissors, the pieces were transferred to a 15 mL centrifuge tube using a 5 mL pipette and washed twice with Hank's solution. […]
Cells were counted and diluted in Neurobasal medium to a concentration of 400000 cells per poly-D-lysine 5 μg/mL treated Petri dish. […]
Experiments on cortical neurons were carried out using standard whole cell patch clamp methods (Hamill et al., 1981. Pflügers Archly: European Journal of Physiology 391(2):85-100). Membrane currents were recorded and filtered at 5 kHz with an Axon Axopatch 200B amplifier and data digitized with an Axon Digidata 1322A (Axon Instruments, CA, USA). […]
Data were analyzed using Clampfit 9 (Axon Instruments, CA) and Origin 7.5 (Microcal Inc., Northampton, Mass., USA) software. Data points and results were expressed as arithmetic mean±S.E. […]

[1] = system: MK-801-induced PPI disruption; experiment: Prepulse inhibition of startle with disruption by MK-801; format: in vivo, Wistar rats; details: for Percentage of inhibition: % PPI; for Percentage of inhibition / Acoustic tone alone / Startle amplitude on prepulse + pulse trials: pretreatment ralfinamide methanesulfonate 90 mg/kg oral, mean ± SEM; for Acoustic tone alone / Startle amplitude on prepulse + pulse trials: startle amplitude
Text: Prepulse inhibition (PPI) is a cross-species phenomenon (i.e., it is present in mammals ranging from mice to humans), yet it is relatively impaired among schizophrenic patients. The PPI procedure is used to assess the subject's ability to “gate” or filter environmental information. In the acoustic (startle model) of sensorimotor gating a weak acoustic stimulus (prepulse) decrease the reflexive flinching response (startle) produced by a second, more intense, stimulus (the pulse). Drugs like dizocilpine (MK-801) or amphetamine disrupt PPI and represent an animal model of schizophrenia; antipsychotic drugs are able to prevent PPI deficit. The test is quite useful to screen potential antipsychotic drugs.
Methods: Male Wistar rats, weighing 200-300 g were used. Apparatus: All startle and PPI testing has been performed in four startle chambers. Each ventilated illuminated and sound proof chamber contained a clear non-restrictive Plexiglas cylinder resting on a platform. A high-frequency loudspeaker inside the chamber produced both a continuous background noise of 70 dB and the various acoustic stimuli. Vibrations of the Plexiglas cylinder caused by the whole-body startle response of the animal were transduced into analogue signals by a piezoelectric unit attached to the platform. These signals were then digitized and stored by a computer. Sixty-five readings were taken at 1-ms intervals starting at stimulus onset, and the average amplitude was used to determine the acoustic startle response. Sound levels is given in dB.
Prepulse inhibition session: After 5 min of habituation (background white noise, 70 dB), two types of acoustic stimuli were used: acoustic stimulus alone (120 dB, 40 ms) or the stimulus proceeded by a prepulse (76, 79, 82 dB, 40 ms) applied 100 ms before the stimulus. During each experimental session 20 trials of each type were presented with interstimulus interval of 20 s. The amplitudes were averaged for each individual animal, separately for both types of trials (stimulus alone or stimulus preceded by the prepulse). The degree of prepulse inhibition was shown as a percentage score (% PPI) calculated as […] a difference between the amplitude of the pulse-alone (P) and the amplitude of the prepulse+pulse trials (PP+P), divided by the amplitude of the pulse-alone trials and multiplied by 100. […] Substances and treatments: MK-801 0.2 mg/kg was dissolved in saline and was given i.p. In each experiment, […] were assigned to receive either compounds of the disclosure or vehicle and were tested in the PPI session using a between-subjects design. The order of drug treatment for the first experiment was test-compound, followed by MK-801; for the second experiment rats received test-compound and then amphetamine. Statistical Analysis: Multiple ANOVA was conducted followed by Dunnett's post hoc test.

[2] = treatment MK-801 0.2 mg/kg i.p.

**Q.** Which results are given for C[C@H](NCc1ccc(OCc2ccccc2F)cc1)C(N)=O [Ralfinamide methanesulfonate, (S)-(+)-2-[4-(2-fluorobenzyloxy)benzylamino]propanamide]?
**A.** IC50 (NMDA receptor complex): 7.3 µM; Percentage of inhibition [1, 2]: 21.92 ± 0.40 %; Percentage of inhibition ([1]; treatment vehicle): 44.16 ± 3.54%; Reversing the disruptive effect of MK-801 on PPI ([1]; orally, 90 mg/kg): active; Acoustic tone alone [1, 2]: 38.50 ± 1.36; Startle amplitude on prepulse + pulse trials [1, 2]: 30.00 ± 0.90; Acoustic tone alone ([1]; treatment vehicle): 35.50 ± 0.45; Startle amplitude on prepulse + pulse trials ([1]; treatment vehicle): 20.00 ± 1.51
